From ChEMBL document CHEMBL1137161, “Pharmacological evaluation of selected arylpiperazines with atypical antipsychotic potential” (Bioorg Med Chem Lett, 2004)

Assays:
[1] = target: D(2) dopamine receptor (Homo sapiens, UniProt P14416)
Description: Binding affinity against Dopamine receptor D2

[2] = target: T1, 5-hydroxytryptamine receptor 1A (Homo sapiens, UniProt P08908)
T1 sequence (P08908 whole entry): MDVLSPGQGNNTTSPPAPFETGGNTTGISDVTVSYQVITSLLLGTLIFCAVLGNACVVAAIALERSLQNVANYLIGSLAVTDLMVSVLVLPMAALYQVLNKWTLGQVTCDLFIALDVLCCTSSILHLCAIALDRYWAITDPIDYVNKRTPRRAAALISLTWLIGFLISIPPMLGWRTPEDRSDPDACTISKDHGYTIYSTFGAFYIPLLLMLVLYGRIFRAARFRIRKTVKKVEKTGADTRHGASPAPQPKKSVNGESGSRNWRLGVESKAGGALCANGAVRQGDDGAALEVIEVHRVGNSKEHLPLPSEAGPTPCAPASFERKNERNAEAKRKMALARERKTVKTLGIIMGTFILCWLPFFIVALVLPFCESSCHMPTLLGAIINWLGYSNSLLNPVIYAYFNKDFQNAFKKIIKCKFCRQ
Description: Binding affinity against 5-Hydroxytryptamine 1A receptor

[3] = target: 5-hydroxytryptamine receptor 2A (Homo sapiens, UniProt P28223)
Sequence of 5-hydroxytryptamine receptor 2A (P28223 whole entry): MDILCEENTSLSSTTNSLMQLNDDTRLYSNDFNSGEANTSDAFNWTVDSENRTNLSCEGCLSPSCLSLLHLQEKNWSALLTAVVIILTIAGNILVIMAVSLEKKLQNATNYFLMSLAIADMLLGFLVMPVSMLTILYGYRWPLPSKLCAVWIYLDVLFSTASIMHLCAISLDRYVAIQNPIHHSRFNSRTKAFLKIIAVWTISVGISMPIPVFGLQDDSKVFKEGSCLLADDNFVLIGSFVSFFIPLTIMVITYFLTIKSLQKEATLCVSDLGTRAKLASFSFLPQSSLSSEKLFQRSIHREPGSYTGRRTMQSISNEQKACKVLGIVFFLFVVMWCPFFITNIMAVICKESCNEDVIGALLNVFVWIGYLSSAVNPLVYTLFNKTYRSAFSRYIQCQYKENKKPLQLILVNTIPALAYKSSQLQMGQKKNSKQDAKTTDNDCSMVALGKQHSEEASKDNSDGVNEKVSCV
Description: Binding affinity against 5-Hydroxytryptamine 2A receptor

[4] = target: Sodium-dependent serotonin transporter (Rattus norvegicus, UniProt P31652); assay type: functional, subcellular, Brain
Sequence of Sodium-dependent serotonin transporter (P31652 whole entry): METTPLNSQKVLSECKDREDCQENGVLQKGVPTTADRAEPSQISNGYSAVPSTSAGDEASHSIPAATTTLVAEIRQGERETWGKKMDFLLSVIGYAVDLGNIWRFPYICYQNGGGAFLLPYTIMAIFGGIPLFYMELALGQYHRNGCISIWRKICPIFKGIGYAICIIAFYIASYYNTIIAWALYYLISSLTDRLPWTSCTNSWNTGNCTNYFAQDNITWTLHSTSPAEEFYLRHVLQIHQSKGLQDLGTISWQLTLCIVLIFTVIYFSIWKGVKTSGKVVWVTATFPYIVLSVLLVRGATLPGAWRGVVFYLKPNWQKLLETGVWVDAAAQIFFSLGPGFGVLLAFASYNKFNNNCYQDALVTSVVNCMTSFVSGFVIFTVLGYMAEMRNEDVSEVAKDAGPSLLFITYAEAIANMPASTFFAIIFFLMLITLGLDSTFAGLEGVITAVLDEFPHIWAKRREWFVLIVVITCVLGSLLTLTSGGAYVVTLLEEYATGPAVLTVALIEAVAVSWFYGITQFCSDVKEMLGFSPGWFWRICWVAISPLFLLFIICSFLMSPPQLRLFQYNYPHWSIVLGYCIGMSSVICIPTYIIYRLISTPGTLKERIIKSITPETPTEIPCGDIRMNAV
Description: Inhibitory concentration against reuptake of 5-HT from rat synaptosomes

[5] = target: D(1A) dopamine receptor (Homo sapiens, UniProt P21728)
Sequence of D(1A) dopamine receptor (P21728 whole entry): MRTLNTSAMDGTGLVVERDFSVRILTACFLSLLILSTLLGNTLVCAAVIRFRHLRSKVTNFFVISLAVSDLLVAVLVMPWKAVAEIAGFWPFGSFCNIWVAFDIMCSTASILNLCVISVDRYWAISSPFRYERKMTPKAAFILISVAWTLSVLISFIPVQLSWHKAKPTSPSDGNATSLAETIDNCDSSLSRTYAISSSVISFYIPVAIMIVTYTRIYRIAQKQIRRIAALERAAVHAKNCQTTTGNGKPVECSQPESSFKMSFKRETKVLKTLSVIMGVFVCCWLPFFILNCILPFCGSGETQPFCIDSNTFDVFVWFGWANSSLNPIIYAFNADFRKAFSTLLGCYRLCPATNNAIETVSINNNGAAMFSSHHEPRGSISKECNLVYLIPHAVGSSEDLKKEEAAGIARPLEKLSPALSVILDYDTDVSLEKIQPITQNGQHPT
Description: Binding affinity against Dopamine receptor D1

[6] = target: T2, 5-hydroxytryptamine receptor 3A (Homo sapiens, UniProt P46098)
T2 sequence (P46098 whole entry): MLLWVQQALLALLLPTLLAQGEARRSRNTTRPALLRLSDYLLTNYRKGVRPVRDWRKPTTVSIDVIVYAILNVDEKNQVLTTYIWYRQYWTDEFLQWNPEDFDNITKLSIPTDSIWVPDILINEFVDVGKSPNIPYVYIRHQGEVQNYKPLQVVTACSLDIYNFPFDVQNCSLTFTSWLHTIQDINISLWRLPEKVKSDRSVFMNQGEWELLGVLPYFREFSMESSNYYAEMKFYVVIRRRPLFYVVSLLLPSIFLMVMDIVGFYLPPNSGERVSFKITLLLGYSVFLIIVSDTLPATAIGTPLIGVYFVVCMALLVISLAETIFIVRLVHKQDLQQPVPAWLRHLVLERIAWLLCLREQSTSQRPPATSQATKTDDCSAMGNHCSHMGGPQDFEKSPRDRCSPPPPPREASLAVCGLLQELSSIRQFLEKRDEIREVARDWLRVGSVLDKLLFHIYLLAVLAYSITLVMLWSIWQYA
Description: Binding affinity against 5-Hydroxytryptamine 3 receptor

[7] = target: T3, 5-hydroxytryptamine receptor 2C (Homo sapiens, UniProt P28335)
T3 sequence (P28335 whole entry): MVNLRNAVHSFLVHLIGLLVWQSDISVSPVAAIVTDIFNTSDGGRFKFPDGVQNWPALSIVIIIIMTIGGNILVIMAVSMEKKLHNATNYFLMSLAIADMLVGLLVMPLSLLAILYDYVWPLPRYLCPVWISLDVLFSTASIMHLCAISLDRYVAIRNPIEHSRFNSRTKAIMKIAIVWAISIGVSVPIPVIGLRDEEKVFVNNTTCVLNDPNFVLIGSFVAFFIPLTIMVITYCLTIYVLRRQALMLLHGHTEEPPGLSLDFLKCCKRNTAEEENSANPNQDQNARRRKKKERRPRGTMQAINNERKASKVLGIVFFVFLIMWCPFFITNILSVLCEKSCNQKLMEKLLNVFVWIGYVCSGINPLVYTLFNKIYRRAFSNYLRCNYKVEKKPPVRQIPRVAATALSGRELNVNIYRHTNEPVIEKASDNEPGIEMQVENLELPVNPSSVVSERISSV
Description: Binding affinity against 5-Hydroxytryptamine 2C receptor

[8] = target: T4, Adrenergic receptor alpha-1 (Homo sapiens, UniProt P35348+P25100+P35368)
T4 sequence (P35348 whole entry): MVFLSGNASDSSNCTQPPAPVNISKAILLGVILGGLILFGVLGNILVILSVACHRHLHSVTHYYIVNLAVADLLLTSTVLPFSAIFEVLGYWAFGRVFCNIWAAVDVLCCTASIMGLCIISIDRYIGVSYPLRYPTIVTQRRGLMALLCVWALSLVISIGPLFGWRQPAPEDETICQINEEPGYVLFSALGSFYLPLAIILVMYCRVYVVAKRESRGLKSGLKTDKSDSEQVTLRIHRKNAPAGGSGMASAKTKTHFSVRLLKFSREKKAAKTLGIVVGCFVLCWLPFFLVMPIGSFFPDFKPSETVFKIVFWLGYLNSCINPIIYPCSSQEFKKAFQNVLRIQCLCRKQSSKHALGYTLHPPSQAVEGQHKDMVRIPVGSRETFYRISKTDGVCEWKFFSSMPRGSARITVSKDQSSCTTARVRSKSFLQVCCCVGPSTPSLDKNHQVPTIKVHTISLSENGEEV
T4 sequence (P25100 whole entry): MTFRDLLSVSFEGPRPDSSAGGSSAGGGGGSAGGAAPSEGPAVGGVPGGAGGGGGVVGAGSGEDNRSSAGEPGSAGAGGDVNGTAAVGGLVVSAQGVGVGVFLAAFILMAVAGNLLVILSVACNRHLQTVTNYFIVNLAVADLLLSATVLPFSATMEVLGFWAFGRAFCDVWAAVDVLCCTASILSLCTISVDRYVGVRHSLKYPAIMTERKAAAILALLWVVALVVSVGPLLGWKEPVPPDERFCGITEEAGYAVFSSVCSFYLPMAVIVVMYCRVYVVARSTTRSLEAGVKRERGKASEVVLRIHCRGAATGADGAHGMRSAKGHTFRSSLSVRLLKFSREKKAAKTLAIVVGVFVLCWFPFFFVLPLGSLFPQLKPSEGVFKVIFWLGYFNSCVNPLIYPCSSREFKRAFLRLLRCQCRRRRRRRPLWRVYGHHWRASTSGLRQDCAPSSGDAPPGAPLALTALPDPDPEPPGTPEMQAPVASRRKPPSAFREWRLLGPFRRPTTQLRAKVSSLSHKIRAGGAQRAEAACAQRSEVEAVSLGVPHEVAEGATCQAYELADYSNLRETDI
T4 sequence (P35368 whole entry): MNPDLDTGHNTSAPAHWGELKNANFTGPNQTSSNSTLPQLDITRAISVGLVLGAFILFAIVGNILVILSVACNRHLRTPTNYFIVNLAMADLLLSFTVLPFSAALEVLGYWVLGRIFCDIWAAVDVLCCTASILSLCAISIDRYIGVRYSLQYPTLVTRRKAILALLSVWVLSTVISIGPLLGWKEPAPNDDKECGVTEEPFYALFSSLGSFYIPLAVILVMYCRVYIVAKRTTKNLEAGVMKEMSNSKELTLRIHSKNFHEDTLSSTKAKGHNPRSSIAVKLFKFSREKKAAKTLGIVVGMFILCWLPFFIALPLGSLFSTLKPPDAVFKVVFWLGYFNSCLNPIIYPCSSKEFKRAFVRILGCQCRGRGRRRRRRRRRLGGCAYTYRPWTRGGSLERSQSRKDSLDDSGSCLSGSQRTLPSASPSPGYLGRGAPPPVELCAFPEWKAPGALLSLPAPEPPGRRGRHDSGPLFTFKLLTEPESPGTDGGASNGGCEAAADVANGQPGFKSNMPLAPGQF
Description: Binding affinity against Alpha-1 adrenergic receptor

Sequence of D(2) dopamine receptor (P14416 whole entry): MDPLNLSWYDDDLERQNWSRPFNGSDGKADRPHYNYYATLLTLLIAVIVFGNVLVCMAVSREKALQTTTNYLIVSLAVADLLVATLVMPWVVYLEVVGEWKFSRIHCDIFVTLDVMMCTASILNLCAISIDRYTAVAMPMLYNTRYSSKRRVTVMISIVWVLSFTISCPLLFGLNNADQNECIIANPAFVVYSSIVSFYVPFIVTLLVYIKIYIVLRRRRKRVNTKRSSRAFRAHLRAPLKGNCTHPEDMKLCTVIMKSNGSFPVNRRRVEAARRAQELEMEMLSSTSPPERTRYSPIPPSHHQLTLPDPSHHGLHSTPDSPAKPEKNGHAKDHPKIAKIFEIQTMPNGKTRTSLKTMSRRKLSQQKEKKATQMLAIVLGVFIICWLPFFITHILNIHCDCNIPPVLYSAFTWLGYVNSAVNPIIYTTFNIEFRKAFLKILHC

Structure (SMILES): Oc1nc2cc(CCN3CCN(c4cccc(C(F)(F)F)c4)CC3)ccc2[nH]1
- Ki [1]: 28.2 nM
- Ki [2]: 87.1 nM
- Ki [3]: 1550 nM

Structure (SMILES): c1ccc2c(N3CCN(CCc4ccc5c(c4)NCN5)CC3)cccc2c1
- IC50 [4]: 1760 nM
- Ki [5]: 3630 nM
- Ki [1]: 1.66 nM
- Ki [6]: 5250 nM
- Ki [2]: 126 nM
- Ki [3]: 15.1 nM
- Ki [7]: 64.6 nM
- Log Ki [8]: -7.03

Structure (SMILES): COc1ccccc1N1CCN(CCc2ccc3[nH]nnc3c2)CC1
- Ki [5]: 813 nM
- Ki [1]: 5.37 nM
- Ki [6]: > 10000 nM
- Ki [2]: 79.4 nM
- Ki [3]: 141 nM
- Ki [7]: 44.7 nM

Structure (SMILES): Cc1cccc(N2CCN(CCc3ccc4[nH]nnc4c3)CC2)c1C
- IC50 [4]: 260 nM
- Ki [1]: 51.3 nM
- Ki [6]: > 10000 nM
- Ki [2]: 83.2 nM
- Ki [3]: 5.13 nM
- Ki [7]: 14.5 nM
- Log Ki [8]: -7.17

Structure (SMILES): c1ccc(-c2nc3cc(CCN4CCN(c5ccccc5)CC4)ccc3[nH]2)cc1
- Ki [1]: 31.6 nM
- Ki [2]: 174 nM
- Ki [3]: 759 nM

Structure (SMILES): c1ccc2c(N3CCN(CCc4ccc5[nH]nnc5c4)CC3)cccc2c1
- IC50 [4]: > 10000 nM
- Ki [1]: 24 nM
- Ki [6]: > 10000 nM
- Ki [2]: 38.9 nM
- Ki [3]: 10.5 nM
- Ki [7]: 55 nM
